Reference: ChEMBL document CHEMBL1201862, “PubChem BioAssay data set” (2004)
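Tested at 5 concentrations; 48 h exposure; 96-well plates; endpoints linearly interpolated, else capped at highest concentration. Here, GI50 denotes the concentration required for 50% inhibition of growth.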 The source made the active and inactive calls. Rule as the data show it: active = GI50 up to about 1.1 µM and inactive = higher. Where a SMILES comes first, the peptide text is derived from it. [ ]: non-standard residue; d: D form. The star is where a group is joined. Hyp = O=C(O)[CH]1C[CH](O)CN1; Cbz = O=C(OCc1ccccc1)*

How the values were obtained:
Test in all cases: NCI-60 cell line screen, 48 h
[1] = system: CCRF-CEM
[2] = system: 786-0
[3] = system: U-251
[4] = system: BT-549
[5] = system: MDA-MB-435
[6] = system: NCI-H23
[7] = system: UACC-62
[8] = system: MCF7
[9] = system: EKVX
[10] = system: PC-3
[11] = system: OVCAR-5
[12] = system: HCT-116
[13] = system: HCC 2998
[14] = system: MDA-MB-231
[15] = system: HT-29
[16] = system: OVCAR-3
[17] = system: SF-539
[18] = system: COLO 205
[19] = system: MDA-N
[20] = system: SR

Measured: GI50

CCCCS/C(=C(/C#N)C(N)=O)c1cc2c([nH]1)CCCC2
inactive: [1] 6.7 µM | [2] 11.5 µM | [3] 15.7 µM | [4] 11.1 µM | [5] 3.36 µM | [6] 16.7 µM | [7] 6.52 µM | [8] 10.3 µM | [9] 11.2 µM | [10] 11.4 µM | [11] 29 µM | [12] 11 µM | [13] 11.4 µM | [14] 13.1 µM | [15] 4.69 µM | [16] 15.7 µM | [17] 14.7 µM | [18] 14 µM | [19] 4.19 µM

COC(=O)c1ccc2c(c1)sc1nc(-c3ccc(OC)cc3)cn12
inactive: [1] 39.9 µM | [2] > 100 µM | [3] 31.7 µM | [4] 43.7 µM | [5] 42.8 µM | [6] > 100 µM | [7] > 100 µM | [8] 66.2 µM | [9] > 100 µM | [10] > 100 µM | [11] > 100 µM | [12] > 100 µM | [13] > 100 µM | [14] > 100 µM | [15] 83.4 µM | [16] > 100 µM | [17] 59.8 µM | [18] 31.9 µM | [19] 78.9 µM

CCCCn1c2c(c3ccccc3c1=O)C(=O)c1ccccc1-2
inactive: [1] > 100 µM | [2] 25.3 µM | [3] 66.1 µM | [4] > 100 µM | [5] > 100 µM | [6] 45.2 µM | [7] > 100 µM | [8] 15 µM | [9] > 100 µM | [10] > 100 µM | [11] > 100 µM | [12] > 100 µM | [14] 94 µM | [15] 13.3 µM | [16] > 100 µM | [17] 49.1 µM | [18] 20.4 µM | [19] > 100 µM | [20] 1.82 µM

O=c1[nH]nc(-c2ccccc2)n1-n1cccc1
inactive: [1] 50.8 µM | [2] > 100 µM | [3] > 100 µM | [4] > 100 µM | [5] > 100 µM | [7] > 100 µM | [8] > 100 µM | [9] > 100 µM | [10] > 100 µM | [11] > 100 µM | [12] > 100 µM | [13] > 100 µM | [14] > 100 µM | [15] > 100 µM | [16] > 100 µM | [18] > 100 µM | [19] > 100 µM | [20] 9.29 µM

Cc1nn(C(=O)c2ccncc2)c2c1C(c1ccc([N+](=O)[O-])cc1)SC(=N)N2 (centres undefined)
inactive: [1] > 100 µM | [2] > 100 µM | [3] > 100 µM | [4] > 100 µM | [5] > 100 µM | [6] > 100 µM | [7] > 100 µM | [8] > 100 µM | [9] > 100 µM | [10] > 100 µM | [11] > 100 µM | [12] > 100 µM | [14] > 100 µM | [15] > 100 µM | [16] > 100 µM | [17] > 100 µM | [18] > 100 µM | [19] > 100 µM | [20] > 100 µM

CCNC1=C(NC(=O)CCl)C(=O)c2ccccc2C1=O
inactive: [1] 20 µM | [2] 34.4 µM | [3] 20.3 µM | [4] > 10 µM | [5] 19.1 µM | [6] 19 µM | [8] 22.4 µM | [9] 16 µM | [10] 16 µM | [11] 19.6 µM | [12] 18.4 µM | [13] > 10 µM | [14] 21.5 µM | [15] > 10 µM | [16] 17.7 µM | [17] 21.7 µM | [18] > 10 µM | [19] 15.6 µM | [20] 32.8 µM

CCOC(=O)Cc1c(C)c2cc(C(=O)c3ccccc3)c(O)cc2oc1=O
inactive: [1] 31.1 µM | [2] 39.8 µM | [3] 20.8 µM | [4] 17.8 µM | [5] 33 µM | [6] 19.3 µM | [7] 35.3 µM | [8] 22.4 µM | [9] 25.5 µM | [10] 24.8 µM | [11] 26 µM | [12] 33.3 µM | [13] 32.6 µM | [14] 23.8 µM | [15] 39.2 µM | [16] 17.8 µM | [17] 20.4 µM | [18] 18.5 µM | [19] 33.3 µM

CCCN(CCC)c1cc2c(cc1F)c(=O)c(C(=O)O)cn2-c1ccc(N2CCN(C)CC2)cn1
inactive: [1] 17.6 µM | [2] 15.8 µM | [3] 25.5 µM | [4] 10.7 µM | [5] 19.4 µM | [6] 16.7 µM | [7] 18.5 µM | [8] 14.9 µM | [9] 16.7 µM | [10] 19 µM | [11] 18.8 µM | [12] 15.3 µM | [14] 13.5 µM | [15] 14.7 µM | [16] 15.7 µM | [17] 17.1 µM | [18] 13.4 µM | [19] 20.1 µM | [20] 15.7 µM

Nc1c(C(=O)O)c2ccc([N+](=O)[O-])cc2c(=O)n1-c1nc2ccccc2s1
inactive: [1] > 100 µM | [2] > 100 µM | [3] > 100 µM | [4] > 100 µM | [5] > 100 µM | [6] > 100 µM | [7] > 100 µM | [8] > 100 µM | [9] > 100 µM | [10] > 100 µM | [11] > 100 µM | [12] > 100 µM | [13] > 100 µM | [14] > 100 µM | [15] > 100 µM | [16] > 100 µM | [18] > 100 µM | [19] > 100 µM | [20] > 100 µM

COc1cc(O)c2c(=O)c(OC)c(-c3ccc4c(c3)OCO4)oc2c1OC
inactive: [1] > 50 µM | [2] 38.9 µM | [3] 12.9 µM | [4] 13.4 µM | [5] > 50 µM | [6] > 50 µM | [7] > 50 µM | [8] > 50 µM | [9] 39 µM | [10] > 50 µM | [11] > 50 µM | [12] 49.7 µM | [13] > 50 µM | [14] 32 µM | [15] > 50 µM | [16] > 50 µM | [17] 18.5 µM | [18] > 50 µM | [19] > 50 µM

CCOC(=O)Oc1cc2ccsc2c2c1c1ccccc1n2C(=O)OCC
inactive: [1] > 100 µM | [2] 34.1 µM | [3] 45 µM | [4] 59 µM | [5] 68.9 µM | [6] 52.5 µM | [7] 34.4 µM | [8] 59 µM | [9] 60.7 µM | [10] 38.2 µM | [11] > 100 µM | [12] 54.6 µM | [14] 35.6 µM | [15] 69.5 µM | [16] 70.1 µM | [17] 36.4 µM | [18] > 100 µM | [19] 31 µM | [20] > 100 µM

Fc1ccc2c(c1)nc1n2C(c2c(F)cccc2F)SC1 (centres undefined)
inactive: [2] 66.7 µM | [3] 57 µM | [4] 42.5 µM | [5] 49.9 µM | [6] 34 µM | [7] 45.5 µM | [8] 42.1 µM | [9] 29.2 µM | [10] 51.6 µM | [11] 98.6 µM | [12] 25.6 µM | [13] 71.6 µM | [14] 91.8 µM | [15] 31.6 µM | [16] 28.6 µM | [17] > 100 µM | [18] 80.2 µM | [19] 28.2 µM | [20] 18.1 µM

CC1=NN=C(N)NC1=CC(Sc1ccc(Cl)cc1)c1c(O)ccc2ccccc12 (centres undefined)
inactive: [1] 4.73 µM | [2] 25.5 µM | [3] 18.3 µM | [4] 13.6 µM | [5] 19.6 µM | [6] 15.1 µM | [7] 9.35 µM | [8] 20 µM | [9] 18 µM | [10] 16.1 µM | [11] 23.1 µM | [12] 18.9 µM | [13] 16.7 µM | [14] 21.1 µM | [15] 20.5 µM | [18] 16.9 µM | [19] 28.2 µM | [20] 17.4 µM

NC(=O)CNC(=O)C1CC(O)CN1C(=O)C1CCCN1C(=O)OCc1ccccc1 (stereo not drawn) (Cbz-Pro-[Hyp]-Gly-NH2; configuration not given here)
inactive: [1] > 100 µM | [2] > 100 µM | [3] > 100 µM | [4] > 100 µM | [5] > 100 µM | [6] > 100 µM | [7] > 100 µM | [8] > 100 µM | [9] > 100 µM | [10] > 100 µM | [11] > 100 µM | [12] > 100 µM | [13] > 100 µM | [14] > 100 µM | [15] > 100 µM | [16] > 100 µM | [18] > 100 µM | [19] > 100 µM | [20] > 100 µM
